Patent US20260132129A1 (Genesis Therapeutics, Inc., priority 2022, published 2026)

Molecular target: T1, PI3Kα H1047R (T47D cells) (Homo sapiens, UniProt P42336, H1047R)
T1 construct: endogenous in cells; host or cells: T47D cells
Test: PI3Kα cellular assay: pAKT HTRF in T47D cells after EGF stimulation
Type: cell-based
Settings: for IC50: T47D cells (PI3Kα H1047R), pAKT S473 HTRF, EGF stimulation
How it was run: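 pAKT read by HTRF in lysates of EGF-stimulated (20 ng/mL, 10 min) T47D H1047R cells. Before stimulation, serum-starved cells (16 h) received compound for 1 h at 37 °C, dosed from 10,000 nM down to 0.5 nM in 3-fold steps.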

T1 sequence (P42336 whole entry H1047R): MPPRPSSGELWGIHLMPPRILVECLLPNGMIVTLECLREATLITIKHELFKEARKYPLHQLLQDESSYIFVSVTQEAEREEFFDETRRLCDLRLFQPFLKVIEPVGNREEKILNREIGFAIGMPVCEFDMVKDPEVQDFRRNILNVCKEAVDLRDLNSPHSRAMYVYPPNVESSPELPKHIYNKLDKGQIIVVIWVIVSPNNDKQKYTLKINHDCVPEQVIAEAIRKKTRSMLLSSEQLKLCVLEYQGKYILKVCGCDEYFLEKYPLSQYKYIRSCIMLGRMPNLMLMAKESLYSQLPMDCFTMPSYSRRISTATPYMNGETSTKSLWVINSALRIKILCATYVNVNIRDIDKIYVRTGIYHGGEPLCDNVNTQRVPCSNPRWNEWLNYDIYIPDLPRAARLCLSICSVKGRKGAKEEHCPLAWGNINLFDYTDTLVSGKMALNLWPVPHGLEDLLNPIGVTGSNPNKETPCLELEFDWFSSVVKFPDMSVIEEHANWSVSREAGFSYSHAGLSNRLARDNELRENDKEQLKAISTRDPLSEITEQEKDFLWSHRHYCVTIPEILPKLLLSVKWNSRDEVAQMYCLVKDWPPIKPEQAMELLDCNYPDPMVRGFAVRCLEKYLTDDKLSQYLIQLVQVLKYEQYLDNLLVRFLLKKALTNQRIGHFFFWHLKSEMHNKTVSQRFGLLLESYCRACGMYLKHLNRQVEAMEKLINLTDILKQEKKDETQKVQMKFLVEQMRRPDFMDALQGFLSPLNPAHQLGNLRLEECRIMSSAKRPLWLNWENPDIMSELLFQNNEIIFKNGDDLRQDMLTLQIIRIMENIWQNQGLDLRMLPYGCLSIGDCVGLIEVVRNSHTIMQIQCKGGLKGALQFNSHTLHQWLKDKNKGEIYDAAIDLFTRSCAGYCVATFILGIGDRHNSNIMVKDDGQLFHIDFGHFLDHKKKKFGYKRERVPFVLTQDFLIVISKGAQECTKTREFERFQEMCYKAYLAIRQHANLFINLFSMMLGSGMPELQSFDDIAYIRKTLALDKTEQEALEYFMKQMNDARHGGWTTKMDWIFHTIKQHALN
T1 sequence (P27986 whole entry partner): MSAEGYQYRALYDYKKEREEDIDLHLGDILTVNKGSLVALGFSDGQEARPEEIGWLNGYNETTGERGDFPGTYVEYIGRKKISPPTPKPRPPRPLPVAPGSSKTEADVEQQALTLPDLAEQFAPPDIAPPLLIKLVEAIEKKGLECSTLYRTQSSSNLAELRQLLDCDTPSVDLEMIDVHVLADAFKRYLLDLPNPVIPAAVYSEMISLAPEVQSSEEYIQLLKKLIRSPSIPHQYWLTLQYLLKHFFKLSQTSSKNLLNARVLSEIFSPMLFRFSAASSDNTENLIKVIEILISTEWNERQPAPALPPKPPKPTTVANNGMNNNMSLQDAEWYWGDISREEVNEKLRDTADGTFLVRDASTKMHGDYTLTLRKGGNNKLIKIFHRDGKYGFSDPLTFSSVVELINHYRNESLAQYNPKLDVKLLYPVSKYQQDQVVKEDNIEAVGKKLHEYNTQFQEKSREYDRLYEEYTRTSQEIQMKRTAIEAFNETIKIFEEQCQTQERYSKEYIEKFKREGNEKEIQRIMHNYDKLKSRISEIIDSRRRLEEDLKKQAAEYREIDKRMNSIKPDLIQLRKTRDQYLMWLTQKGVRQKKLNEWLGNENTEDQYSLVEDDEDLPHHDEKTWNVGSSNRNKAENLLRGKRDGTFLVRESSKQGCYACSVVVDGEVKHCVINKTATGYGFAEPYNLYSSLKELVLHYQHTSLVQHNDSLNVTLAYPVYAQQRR

Row | Structure (SMILES) | T47D pAKT S473 HTRF IC50 (H1047R): T47D (H1047R) selectivity over SKBR3 (WT) | IC50 [nM]
1 | Cc1cc([C@@H](C)Nc2ccccc2C(=O)O)c2nc([C@H]3CCCC(CC(F)F)C3)c(C)c(=O)n2c1 (stereo partly drawn) [Compound 1329] | A (A denotes >20-fold) | –
2 | Cc1cc([C@H](C)Nc2ccccc2C(=O)O)c2nc([C@H]3CCCC(CC(F)F)C3)c(C)c(=O)n2c1 (stereo partly drawn) [Compound 1331] | C (C denotes ≤5-fold) | –
3 | Cc1cc(C(C)Nc2ccccc2C(=O)O)c2nc(-c3cnc(C4CCN(C(=O)C5CC5)CC4)nc3)c(C)c(=O)n2c1 (stereo not drawn) [Compound 1336] | C (C denotes ≤5-fold) | –
4 | Cc1cc([C@H](C)Nc2ccccc2C(=O)O)c2nc(-c3ccc(C4CCC(C)CC4)cc3)cc(=O)n2c1 (stereo partly drawn) [Compound 1341] | B (B denotes 20-fold≥value>5-fold) | –
5 | Cc1cc([C@@H](C)Nc2ccccc2S(N)(=O)=O)c2nc(-c3ccc(C4CCNCC4)nc3)c(C)c(=O)n2c1 [Compound 1344] | B (B denotes 20-fold≥value>5-fold) | –
6 | Cc1cc([C@H](C)Nc2ccccc2S(N)(=O)=O)c2nc(-c3ccc(C4CCNCC4)nc3)c(C)c(=O)n2c1 [Compound 1345] | C (C denotes ≤5-fold) | –
7 | Cc1cc([C@H](C)Nc2ccccc2C(=O)NS(C)(=O)=O)c2cc(-c3cccc(F)c3)c(C)c(=O)n2c1 [Compound 1351] | C (C denotes ≤5-fold) | –
8 | Cc1cc(C(C)Nc2ccccc2C(=O)O)c2nc(C3CCCOC3)c(C#N)c(=O)n2c1 (stereo not drawn) [Compound 1353] | A (A denotes >20-fold) | 100 to 500
9 | Cc1cc([C@@H](C)Nc2ccccc2S(C)(=O)=O)c2nc(-c3ccc(C4CCC(C)CC4)cc3)c(C)c(=O)n2c1 (stereo partly drawn) [Compound 1354] | C (C denotes ≤5-fold) | –
10 | Cc1cc(C(C)Nc2cccc3onc(O)c23)c2nc(-c3cccc(F)c3)c(C)c(=O)n2c1 (stereo not drawn) [Compound 1356] | A (A denotes >20-fold) | –
11 | Cc1cc([C@@H](C)Nc2ccccc2C(=O)O)c2cc([C@@H]3CCCOC3)c(C#N)c(=O)n2c1 [Compound 1361] | A (A denotes >20-fold) | –
12 | Cc1cc([C@H](C)Nc2ccccc2C(=O)O)c2nc(C3CCCOC3)c(C#N)c(=O)n2c1 (stereo partly drawn) [Compound 1364] | C (C denotes ≤5-fold) | > 2000
13 | Cc1cc(C(C)Nc2cccc3onc(O)c23)c2nc(-c3cccc(F)c3)c(C)c(=O)n2c1 (stereo not drawn) [Compound 1375] | C (C denotes ≤5-fold) | > 2000
14 | Cc1cc(C(C)Oc2ccccc2C2(O)CS(=O)(=O)C2)c2nc(-c3cccc(F)c3)c(C)c(=O)n2c1 (stereo not drawn) [Compound 1382] | A (A denotes >20-fold) | –
15 | Cc1cc(C(C)Nc2ccccc2C2(O)COC2)c2nc(-c3cccc(F)c3)c(C)c(=O)n2c1 (stereo not drawn) [Compound 1389, 2-(3-fluorophenyl)-9-(1-((2-(3-hydroxyoxetan-3-yl)phenyl)amino)ethyl)-3,7-dimethyl-4H-pyrido[1,2-a]pyrimidin-4-one] | B (B denotes 20-fold≥value>5-fold) | 500 to 2000
16 | Cc1cc([C@@H](C)Oc2ccccc2C2(O)CS(=O)(=O)C2)c2nc(-c3cccc(F)c3)c(C)c(=O)n2c1 [Compound 1392] | C (C denotes ≤5-fold) | > 2000
17 | Cc1cc([C@H](C)Nc2ccccc2-c2ccnnc2)c2cc([C@H]3CCCOC3)c(C)c(=O)n2c1 [Compound 1406] | A (A denotes >20-fold) | –
18 | Cc1cc([C@H](C)Nc2ccccc2-c2ccnnc2)c2nc([C@@H]3CCCOC3)c(C)c(=O)n2c1 [Compound 1407] | A (A denotes >20-fold) | < 100
19 | Cc1cc(C(C)Nc2ccsc2-c2ccnnc2)c2nc(N3Cc4ccccc4C3)c(C)c(=O)n2c1 (stereo not drawn) [Compound 1409, 2-(isoindolin-2-yl)-3,7-dimethyl-9-(1-((2-(pyridazin-4-yl)thiophen-3-yl)amino)ethyl)-4H-pyrido[1,2-a]pyrimidin-4-one] | A (A denotes >20-fold) | 100 to 500
20 | Cc1cc(C(C)Nc2ccccc2C(=O)O)c2nc(N3Cc4ccccc4C3)c(C)c(=O)n2c1.O=C(O)C(F)(F)F (stereo not drawn) [Compound 1412, 2-((1-(2-(isoindolin-2-yl)-3,7-dimethyl-4-oxo-4H-pyrido[1,2-a]pyrimidin-9-yl)ethyl)amino)benzoic acid trifluoroacetate] | A (A denotes >20-fold) | < 100

Now from value to compound:

Row | T47D pAKT S473 HTRF IC50 (H1047R): T47D (H1047R) selectivity over SKBR3 (WT) | IC50 [nM] | Structure (SMILES)
21 | B (B denotes 20-fold≥value>5-fold) | – | CC(=O)N1CCC(Cc2ccc(-c3nc4c([C@H](C)Nc5ccccc5C(=O)O)cc(C)cn4c(=O)c3C)cc2F)CC1 [Compound 1334]
22 | C (C denotes ≤5-fold) | – | Cc1cc(C(C)Oc2ccccc2C(=O)O)c2nc(-c3cccc(F)c3)c(C)c(=O)n2c1 (stereo not drawn) [Compound 1337]
23 | C (C denotes ≤5-fold) | – | Cc1cc([C@@H](C)Nc2ccccc2C(=O)O)c2nc(-c3ccc(C4CCCC(C)C4)cc3)c(C)c(=O)n2c1 (stereo partly drawn) [Compound 1338]
24 | C (C denotes ≤5-fold) | – | Cc1cc([C@@H](C)Nc2ccccc2C(=O)O)c2nc(-c3ccc(C4CN(C)C4)nc3)c(C)c(=O)n2c1 [Compound 1342]
25 | C (C denotes ≤5-fold) | – | Cc1cc([C@H](C)Nc2ccccc2C(=O)O)c2nc(-c3ccc(C4CN(C)C4)nc3)c(C)c(=O)n2c1 [Compound 1343]
26 | C (C denotes ≤5-fold) | – | Cc1cc([C@@H](C)Nc2ccccc2C(=O)NS(=O)(=O)N(C)C)c2nc(-c3cccc(F)c3)c(C)c(=O)n2c1 [Compound 1346]
27 | B (B denotes 20-fold≥value>5-fold) | – | Cc1cc([C@H](C)Nc2ccccc2C(=O)NS(=O)(=O)N(C)C)c2nc(-c3cccc(F)c3)c(C)c(=O)n2c1 [Compound 1347]
28 | A (A denotes >20-fold) | < 100 | Cc1cn2c(=O)c(C)c(-c3cccc(F)c3)nc2c(C(C)Nc2ccccc2C(=O)O)c1C (stereo not drawn) [Compound 1348]
29 | C (C denotes ≤5-fold) | – | Cc1ccc(N[C@H](C)c2cc(C)cn3c(=O)c(C)c(-c4cccc(F)c4)nc23)c(C(=O)O)c1 [Compound 1357]
30 | A (A denotes >20-fold) | 100 to 500 | Cc1cc(C(C)Nc2cccc3onc(O)c23)c2nc(-c3cccnc3)c(C)c(=O)n2c1 (stereo not drawn) [Compound 1365, 9-(1-((3-hydroxybenzo[d]isoxazol-4-yl)amino)ethyl)-3,7-dimethyl-2-(pyridin-3-yl)-4H-pyrido[1,2-a]pyrimidin-4-one]
31 | A (A denotes >20-fold) | 100 to 500 | Cc1cc(C(C)Nc2ccccc2-c2cc(O)no2)c2nc(-c3cccc(F)c3)c(C)c(=O)n2c1 (stereo not drawn) [Compound 1367, 2-(3-fluorophenyl)-9-(1-((2-(3-hydroxyisoxazol-5-yl)phenyl)amino)ethyl)-3,7-dimethyl-4H-pyrido[1,2-a]pyrimidin-4-one]
32 | C (C denotes ≤5-fold) | > 2000 | Cc1cc([C@@H](C)Nc2ccccc2-c2cc(O)no2)c2nc(-c3cccc(F)c3)c(C)c(=O)n2c1 [Compound 1368, (R)-2-(3-fluorophenyl)-9-(1-((2-(3-hydroxyisoxazol-5-yl)phenyl)amino)ethyl)-3,7-dimethyl-4H-pyrido[1,2-a]pyrimidin-4-one]
33 | C (C denotes ≤5-fold) | > 2000 | Cc1cc([C@@H](C)Oc2ccccc2C(=O)O)c2nc(-c3cccc(F)c3)c(C)c(=O)n2c1 [Compound 1372]
34 | C (C denotes ≤5-fold) | > 2000 | Cc1cc([C@H](C)Oc2ccccc2C(=O)O)c2nc(-c3cccc(F)c3)c(C)c(=O)n2c1 [Compound 1373]
35 | A (A denotes >20-fold) | 100 to 500 | Cc1cc([C@@H](C)Nc2ccccc2C2(O)COC2)c2nc(-c3cccc(F)c3)c(C)c(=O)n2c1 [Compound 1399]
36 | C (C denotes ≤5-fold) | – | Cc1cc([C@H](C)Nc2cccc3onc(O)c23)c2nc(-c3ccccc3)c(C)c(=O)n2c1 [Compound 1403]
37 | A (A denotes >20-fold) | < 100 | Cc1cc(C(C)Nc2ccccc2C(=O)O)c2nc(-c3ccncc3)c(C)c(=O)n2c1 (stereo not drawn) [Compound 1408, 2-((1-(3,7-dimethyl-4-oxo-2-(pyridin-4-yl)-4H-pyrido[1,2-a]pyrimidin-9-yl)ethyl)amino)benzoic acid]
38 | A (A denotes >20-fold) | < 100 | Cc1cc(C(C)Nc2ccccc2C(=O)O)c2nc(-c3cnc4c(c3)c(C)c(C)n4C)c(C)c(=O)n2c1 (stereo not drawn) [Compound 1410, 2-((1-(3,7-dimethyl-4-oxo-2-(1,2,3-trimethyl-1H-pyrrolo[2,3-b]pyridin-5-yl)-4H-pyrido[1,2-a]pyrimidin-9-yl)ethyl)amino)benzoic acid]
39 | A (A denotes >20-fold) | < 100 | Cc1cc(C(C)Nc2ccccc2C(=O)O)c2nc(-c3cnc4c(c3)c(C)nn4C)c(C)c(=O)n2c1 (stereo not drawn) [Compound 1411, 2-((1-(2-(1,3-dimethyl-1H-pyrazolo[3,4-b]pyridin-5-yl)-3,7-dimethyl-4-oxo-4H-pyrido[1,2-a]pyrimidin-9-yl)ethyl)amino)benzoic acid]
